According to patent US20160376240A1, “6 Phenyl or 6 Pyridin 3 YL Indazole Derivatives and Methods of Use” (ABBVIE INC., priority 2014, published 2016):

How the values were obtained:
Format in all cases: biochemical
[1] = biological target: T1, TrkC (Homo sapiens, UniProt Q16288); assay: TrkC kinase inhibition, HTRF assay; conditions: LCK peptide substrate, assay ATP concentration targeted 5 μM
T1 construct: purchased Invitrogen PV3617
Experimental: (§1) TrkA, TrkB, and TrkC enzymes were obtained from Invitrogen (as catalog numbers PV3144, PV3616, and PV3617, respectively). The ability of a compound to inhibit the enzymatic activity of the TrkA, TrkB, and TrkC enzymes was determined in separate assays. Enzyme activity was measured in an HTRF® (homogeneous time resolved fluorescence) assay, which detects enzymatic phosphorylation of a biotinylated synthetic peptide substrate (an LCK peptide analog, biotin-ahx-GAEEEIYAAFFA, from Genemed Synthesis). Phosphorylation is assessed by HTRF® in the presence of an anti-phosphotyrosine antibody conjugated to Eu^3+ cryptate (Cisbio) as donor fluorophore, and streptavidin conjugated to allophycocyanin (ProZyme) as acceptor fluorophore. The HTRF® signal was detected at two different wavelengths (620 nm and 665 nm) which were used to calculate the fluorescence ratio.
(§2) Each enzyme was titrated to a concentration optimized to ensure accurate measurement of the initial reaction rate. To allow the Trk enzymes to undergo activation and auto-phosphorylation, a 20 minute pre-incubation with ATP was carried out (at twice the final targeted enzyme and ATP concentration) prior to addition of test compound and the peptide substrate.
(§3) TrkA in vitro assays were performed by pre-incubating TrkA (2-10 nM) with ATP (200 μM) for 20 minutes at ambient temperature in 50 mM HEPES pH 7.4, 10 mM MgCl2, 2 mM MnCl2, 100 μM Na3VO4, 1 mM dithiothreitol, 0.01% BSA (bovine serum albumin). Then, to the activated Trk enzyme mixture was added the test compound in 2% dimethyl sulfoxide. After 10 minutes, the peptide substrate (125 nM) was added. After 1 hour, enzyme reactions were terminated by addition of equal reaction volumes of detection/stop reagent (containing 0.2 μg/mL anti-phosphotyrosine monoclonal antibody labeled with europium from Cisbio (catalog# PT66-K), and 4 μg/mL PhycoLink® Streptavidin-Allophycocyanin conjugate from ProZyme (catalog# PJ25S) in 60 mM EDTA in 40 mM HEPES pH 7.4, 480 mM KF, 0.01% Tween® 20 and 0.1% BSA bovine serum albumin) Reaction plates were stored at 4° C. overnight before reading the fluorescence ratio signal on a PerkinElmer EnVision™ fluorescence detector. Individual reaction wells were stopped at time points to obtain reaction rates. The test inhibitor compounds were assayed in duplicate, at half-log serial dilutions over a range of concentrations (e.g. starting at 50 μM or 5 μM as the high compound concentration). The percent Trk enzyme inhibition was calculated from the initial rates of the inhibited reactions relative to the uninhibited control. IC50 values were calculated by fitting the inhibition percent to the concentration of inhibitor [I] in the assay in equation 1 below, to solve for the IC50.
(§4) Inhibition %=100[I]/([I]+[IC50]) equation 1
(§5) The TrkB and TrkC in vitro assays were performed as described above, except that for these enzymes the assay ATP concentration targeted was 5 μM.

[2] = biological target: T2, TrkB (Homo sapiens, UniProt Q16620); assay: TrkB kinase inhibition, HTRF assay; conditions: LCK peptide substrate, assay ATP concentration targeted 5 μM
T2 construct: purchased Invitrogen PV3616
T2 sequence (Q16620 32-822): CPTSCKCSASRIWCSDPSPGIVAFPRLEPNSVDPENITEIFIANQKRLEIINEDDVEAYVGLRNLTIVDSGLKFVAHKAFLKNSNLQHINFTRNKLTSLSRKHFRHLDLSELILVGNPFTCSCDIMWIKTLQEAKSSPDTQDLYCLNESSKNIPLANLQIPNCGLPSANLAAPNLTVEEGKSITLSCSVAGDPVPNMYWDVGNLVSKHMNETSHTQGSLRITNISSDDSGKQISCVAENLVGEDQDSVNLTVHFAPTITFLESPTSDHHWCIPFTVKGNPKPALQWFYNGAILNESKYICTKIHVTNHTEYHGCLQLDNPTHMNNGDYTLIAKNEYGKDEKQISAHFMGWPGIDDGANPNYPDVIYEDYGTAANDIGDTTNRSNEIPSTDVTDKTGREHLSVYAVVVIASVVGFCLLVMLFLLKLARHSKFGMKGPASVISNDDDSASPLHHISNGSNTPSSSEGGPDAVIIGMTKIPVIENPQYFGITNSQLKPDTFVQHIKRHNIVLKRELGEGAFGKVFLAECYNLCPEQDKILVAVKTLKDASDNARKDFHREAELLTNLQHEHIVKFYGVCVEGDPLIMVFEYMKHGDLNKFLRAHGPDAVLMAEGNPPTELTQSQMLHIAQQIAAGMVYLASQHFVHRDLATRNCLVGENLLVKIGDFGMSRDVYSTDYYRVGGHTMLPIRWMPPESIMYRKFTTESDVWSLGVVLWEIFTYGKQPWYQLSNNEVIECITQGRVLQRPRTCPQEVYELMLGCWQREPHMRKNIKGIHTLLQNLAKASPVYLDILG
Experimental: as §1, §2, §3, §4, §5

[3] = biological target: T3, TrkA (Homo sapiens, UniProt P04629); assay: TrkA kinase inhibition, HTRF assay; conditions: LCK peptide substrate 125 nM, TrkA 2-10 nM pre-incubated with ATP 200 μM
T3 construct: purchased Invitrogen PV3144
T3 sequence (P04629 33-796): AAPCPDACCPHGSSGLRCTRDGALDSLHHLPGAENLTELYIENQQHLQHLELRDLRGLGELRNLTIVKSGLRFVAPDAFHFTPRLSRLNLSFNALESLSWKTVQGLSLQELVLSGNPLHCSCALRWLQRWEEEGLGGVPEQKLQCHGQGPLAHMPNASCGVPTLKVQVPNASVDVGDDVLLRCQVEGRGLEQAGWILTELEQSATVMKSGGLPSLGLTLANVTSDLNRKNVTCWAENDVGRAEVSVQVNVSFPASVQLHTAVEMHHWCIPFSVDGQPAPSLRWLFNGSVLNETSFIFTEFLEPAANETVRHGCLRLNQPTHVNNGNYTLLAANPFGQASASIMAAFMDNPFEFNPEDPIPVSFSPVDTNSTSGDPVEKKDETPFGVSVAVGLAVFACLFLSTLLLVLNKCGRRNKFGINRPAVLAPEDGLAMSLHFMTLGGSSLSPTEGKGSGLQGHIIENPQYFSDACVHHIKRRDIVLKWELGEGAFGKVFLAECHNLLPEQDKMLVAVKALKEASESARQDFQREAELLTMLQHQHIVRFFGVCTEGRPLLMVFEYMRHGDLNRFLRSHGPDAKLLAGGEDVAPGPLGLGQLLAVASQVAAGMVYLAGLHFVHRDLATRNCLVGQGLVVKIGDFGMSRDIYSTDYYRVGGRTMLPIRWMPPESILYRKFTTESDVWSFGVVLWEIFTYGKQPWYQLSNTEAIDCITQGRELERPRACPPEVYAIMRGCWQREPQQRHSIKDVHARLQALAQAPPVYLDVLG
Procedure, shortened: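 TrkA (2-10 nM) preactivated 20 min with 200 μM ATP in HEPES pH 7.4 with Mg2+/Mn2+, then compound for 10 min, then 125 nM biotinylated LCK-peptide for 1 h at ambient temperature. HTRF 665/620 ratio read; IC50 fitted from initial-rate percent inhibition.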

T1 sequence (Q16288 32-839): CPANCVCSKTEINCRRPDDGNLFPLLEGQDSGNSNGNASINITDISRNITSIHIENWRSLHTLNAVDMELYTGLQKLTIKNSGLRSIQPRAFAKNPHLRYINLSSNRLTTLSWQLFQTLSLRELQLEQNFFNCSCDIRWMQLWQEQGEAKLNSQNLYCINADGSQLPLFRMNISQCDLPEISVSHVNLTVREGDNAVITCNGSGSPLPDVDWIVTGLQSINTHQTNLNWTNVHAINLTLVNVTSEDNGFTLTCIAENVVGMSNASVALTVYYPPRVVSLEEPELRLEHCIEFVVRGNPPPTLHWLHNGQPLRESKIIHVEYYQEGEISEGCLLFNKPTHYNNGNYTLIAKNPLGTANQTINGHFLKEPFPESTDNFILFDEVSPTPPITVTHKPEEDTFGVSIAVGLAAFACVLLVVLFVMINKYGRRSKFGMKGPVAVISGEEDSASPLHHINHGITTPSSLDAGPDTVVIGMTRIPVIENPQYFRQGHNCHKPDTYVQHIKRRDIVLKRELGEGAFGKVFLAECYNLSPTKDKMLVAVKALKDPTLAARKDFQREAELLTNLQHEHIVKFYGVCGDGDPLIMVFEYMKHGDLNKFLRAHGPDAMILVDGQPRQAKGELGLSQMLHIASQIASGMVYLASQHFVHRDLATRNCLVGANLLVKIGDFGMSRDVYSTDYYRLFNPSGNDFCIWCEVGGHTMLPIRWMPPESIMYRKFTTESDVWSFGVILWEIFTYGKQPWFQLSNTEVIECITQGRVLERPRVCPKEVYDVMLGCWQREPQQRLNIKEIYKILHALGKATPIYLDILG

IC50 [1]	IC50 [2]	IC50 [3]	Structure (SMILES)
5.35 nM	4.92 nM	17.5 nM	NC(=O)c1ccc(-c2cc(OC3CCCC3)c3c(N)n[nH]c3c2)cc1N1CCN(c2ccc(F)cc2)CC1 [Example 72, 4-[3-amino-4-(cyclopentyloxy)-1H-indazol-6-yl]-2-[4-(4-fluorophenyl)piperazin-1-yl]benzamide]
3.85 nM	3.09 nM	7.4 nM	NC(=O)c1ccc(-c2cc(OC3CCOCC3)c3c(N)n[nH]c3c2)cc1N1CCN(c2cccnc2)CC1 [Example 2, 4-[3-amino-4-(tetrahydro-2H-pyran-4-yloxy)-1H-indazol-6-yl]-2-[4-(pyridin-3-yl)piperazin-1-yl]benzamide]
158 nM	84.4 nM	51.1 nM	CC(=O)N1CCN(c2cc(-c3cc(OC4CCCC4)c4c(N)n[nH]c4c3)ccc2C(N)=O)CC1 [Example 77, 2-(4-acetylpiperazin-1-yl)-4-[3-amino-4-(cyclopentyloxy)-1H-indazol-6-yl]benzamide]
8.32 nM	3.89 nM	19 nM	NC(=O)c1ccc(-c2cc(OC3CCCC3)c3c(N)n[nH]c3c2)cc1N1CCN(C2CCCCC2)CC1 [Example 74, 4-[3-amino-4-(cyclopentyloxy)-1H-indazol-6-yl]-2-(4-cyclohexylpiperazin-1-yl)benzamide]
2.58 nM	1.63 nM	2.73 nM	CNC(=O)c1ccc(-c2cc(OC3CCOCC3)c3c(N)n[nH]c3c2)cc1N1CCN(CC2CCCC2)CC1 [Example 110, 4-[3-amino-4-(tetrahydro-2H-pyran-4-yloxy)-1H-indazol-6-yl]-2-[4-(cyclopentylmethyl)piperazin-1-yl]-N-methylbenzamide]
305 nM	317 nM	377 nM	CC(C)N1CCN(c2cc(-c3cc(OC(C)C(F)(F)F)c4c(N)n[nH]c4c3)ccc2C(N)=O)CC1 (stereo not drawn) [Example 101, 4-{3-amino-4-[(1,1,1-trifluoropropan-2-yl)oxy]-1H-indazol-6-yl}-2-(4-isopropylpiperazin-1-yl)benzamide]
1.67 nM	1.5 nM	4.92 nM	NC(=O)c1ccc(-c2cc(OC3CCCC3)c3c(N)n[nH]c3c2)cc1N1CCN(c2ccccc2)CC1 [Example 71, 4-[3-amino-4-(cyclopentyloxy)-1H-indazol-6-yl]-2-(4-phenylpiperazin-1-yl)benzamide]
37.1 nM	27.8 nM	80 nM	CNC(=O)c1ccc(-c2cc(O[C@H](C)C(F)(F)F)c3c(N)n[nH]c3c2)cc1N1CCN(C2CCCCC2)CC1 [Example 56, 4-(3-amino-4-{[(2R)-1,1,1-trifluoropropan-2-yl]oxy}-1H-indazol-6-yl)-2-(4-cyclohexylpiperazin-1-yl)-N-methylbenzamide]
1.5 nM	1.5 nM	13.7 nM	CC(=O)Nc1ccc(-c2cc(OC3CCOCC3)c3c(C)n[nH]c3c2)cc1OCCOc1ccccc1 [Example 130, N-{4-[3-methyl-4-(tetrahydro-2H-pyran-4-yloxy)-1H-indazol-6-yl]-2-(2-phenoxyethoxy)phenyl}acetamide]
3.09 nM	1.63 nM	2.95 nM	NC(=O)c1ccc(-c2cc(OC3CCCC3)c3c(N)n[nH]c3c2)cc1N1CCN(c2cccnc2)CC1 [Example 69, 4-[3-amino-4-(cyclopentyloxy)-1H-indazol-6-yl]-2-[4-(pyridin-3-yl)piperazin-1-yl]benzamide]
105 nM	91.9 nM	59.5 nM	CNC(=O)c1ccc(-c2cc(OC(C)C(F)(F)F)c3c(N)n[nH]c3c2)cc1N1CCN(C2CCCCC2)CC1 (stereo not drawn) [Example 35, 4-{3-amino-4-[(1,1,1-trifluoropropan-2-yl)oxy]-1H-indazol-6-yl}-2-(4-cyclohexylpiperazin-1-yl)-N-methylbenzamide]
23.7 nM	15 nM	42.1 nM	COc1cncnc1N1CCN(c2cc(-c3cc(OC4CCOCC4)c4c(N)n[nH]c4c3)ccc2C(N)=O)CC1 [Example 6, 4-[3-amino-4-(tetrahydro-2H-pyran-4-yloxy)-1H-indazol-6-yl]-2-[4-(5-methoxypyrimidin-4-yl)piperazin-1-yl]benzamide]
2.89 nM	2.01 nM	5.31 nM	CC(Oc1cc(-c2ccc(C(N)=O)c(N3CCN(c4cccnc4)CC3)c2)cc2[nH]nc(N)c12)C(F)(F)F (stereo not drawn) [Example 91, 4-{3-amino-4-[(1,1,1-trifluoropropan-2-yl)oxy]-1H-indazol-6-yl}-2-[4-(pyridin-3-yl)piperazin-1-yl]benzamide]
3.53 nM	3.17 nM	13.7 nM	CC(C)(C)OC(=O)N1CCN(c2cc(-c3cc(OC4CCCC4)c4c(N)n[nH]c4c3)ccc2C(N)=O)CC1 [Example 73, tert-butyl 4-{5-[3-amino-4-(cyclopentyloxy)-1H-indazol-6-yl]-2-carbamoylphenyl}piperazine-1-carboxylate]
1.72 nM	1.27 nM	3.35 nM	CC(Oc1cc(-c2ccc(C(N)=O)c(N3CCN(c4ccccc4)CC3)c2)cc2[nH]nc(N)c12)C(F)(F)F (stereo not drawn) [Example 92, 4-{3-amino-4-[(1,1,1-trifluoropropan-2-yl)oxy]-1H-indazol-6-yl}-2-(4-phenylpiperazin-1-yl)benzamide]
1.5 nM	1.5 nM	10.4 nM	CNC(=O)c1ccc(-c2cc(OC3CCOCC3)c3c(N)n[nH]c3c2)cc1N1CCN(c2ccccc2)CC1 [Example 30, 4-[3-amino-4-(tetrahydro-2H-pyran-4-yloxy)-1H-indazol-6-yl]-N-methyl-2-(4-phenylpiperazin-1-yl)benzamide]
318 nM	330 nM	318 nM	CNC(=O)c1ccc(-c2cc(OC(C)C(F)(F)F)c3c(N)n[nH]c3c2)cc1N1CCN(C2CC2)CC1 (stereo not drawn) [Example 34, 4-{3-amino-4-[(1,1,1-trifluoropropan-2-yl)oxy]-1H-indazol-6-yl}-2-(4-cyclopropylpiperazin-1-yl)-N-methylbenzamide]
8.53 nM	8.04 nM	15 nM	Nc1n[nH]c2cc(-c3ccc(C(=O)NC4CC4)c(N4CCN(c5ccccc5)CC4)c3)cc(OC3CCOCC3)c12 [Example 23, 4-[3-amino-4-(tetrahydro-2H-pyran-4-yloxy)-1H-indazol-6-yl]-N-cyclopropyl-2-(4-phenylpiperazin-1-yl)benzamide]
300 nM	268 nM	232 nM	CNC(=O)c1ccc(-c2cc(O[C@@H](C)C(F)(F)F)c3c(N)n[nH]c3c2)cc1N1CCN(C2CCCCC2)CC1 [Example 47, 4-(3-amino-4-{[(2S)-1,1,1-trifluoropropan-2-yl]oxy}-1H-indazol-6-yl)-2-(4-cyclohexylpiperazin-1-yl)-N-methylbenzamide]
25.7 nM	20.6 nM	55.3 nM	NC(=O)c1ccc(-c2cc(OC3CCOCC3)c3c(N)n[nH]c3c2)cc1N1CCN(C2CC2)CC1 [Example 3, 4-[3-amino-4-(tetrahydro-2H-pyran-4-yloxy)-1H-indazol-6-yl]-2-(4-cyclopropylpiperazin-1-yl)benzamide]
1.03 nM	0.786 nM	2.66 nM	NC(=O)c1ccc(-c2cc(OC3CCOCC3)c3c(N)n[nH]c3c2)cc1N1CCN(c2ccccc2)CC1 [Example 1, 4-[3-amino-4-(tetrahydro-2H-pyran-4-yloxy)-1H-indazol-6-yl]-2-(4-phenylpiperazin-1-yl)benzamide]
